Measurements reported in patent US7348425B2, “Inhibitors of HCV replication” (Bristol-Myers Squibb Company, priority 2004, dated 2008).

How the values were obtained:
[1] = test system: HCV replicon; test: HCV replicon FRET assay; assay type: cell-based; settings: Hepatitis C virus; FRET assay; read-out: EC50
In short: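 Replicon cells (± Renilla luciferase reporter) incubated with titrated compound at 37 °C; NS3 protease activity read by FRET peptide cleavage (20 uM EDANS/DABCYL substrate, 340/490 nm kinetic) or luciferase.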

[2] = target: T1, HCV NS5B RdRp genotype 1b (Hepatitis C virus genotype 1b, UniProt Q9WMX2); test: Modified HCV NS5B RdRp enzyme assay (with preincubation); assay type: biochemical; settings: modified method (with preincubation)
T1 construct: The protein was expressed with an 18 amino acid C-terminal truncation to enhance the solubility; made in house; host or cells: E. coli BL21 (DE3), pET21a
In short: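 C-terminally truncated (Δ18) genotype 1b NS5B from E. coli was preincubated (14 nM) with compound, then reaction started with polyA template (0.2 nM), ³H-UTP (0.29 μM) and dT12 primer (20 nM) precaptured on SPA beads. Reaction ran 4 h at 30 °C in pH 7.5 Hepes buffer with 2% DMSO. IC50 came from seven concentrations.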

T1 sequence (Q9WMX2 2420-2992): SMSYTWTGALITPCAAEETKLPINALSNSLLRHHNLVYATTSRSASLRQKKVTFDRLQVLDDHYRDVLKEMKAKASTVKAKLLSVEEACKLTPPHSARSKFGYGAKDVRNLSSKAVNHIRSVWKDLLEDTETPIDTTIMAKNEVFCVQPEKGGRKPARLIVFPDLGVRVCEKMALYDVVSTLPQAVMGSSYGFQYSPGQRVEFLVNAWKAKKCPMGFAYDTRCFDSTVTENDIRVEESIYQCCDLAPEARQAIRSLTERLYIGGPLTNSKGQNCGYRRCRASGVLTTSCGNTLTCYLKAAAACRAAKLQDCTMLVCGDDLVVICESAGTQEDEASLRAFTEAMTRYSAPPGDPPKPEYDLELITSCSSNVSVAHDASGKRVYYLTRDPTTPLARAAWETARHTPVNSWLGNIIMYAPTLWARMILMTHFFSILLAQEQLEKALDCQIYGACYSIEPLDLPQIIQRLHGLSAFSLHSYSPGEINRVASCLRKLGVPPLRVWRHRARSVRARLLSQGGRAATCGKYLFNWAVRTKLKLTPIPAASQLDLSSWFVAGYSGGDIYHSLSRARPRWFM

Structure (SMILES) | EC50 [1] | IC50 [2]
O=C(O)/C=C/c1ccc(NC(=O)C2(NC(=O)c3ccc4c(C5CCCCC5)c5n(c4c3)CC(=O)Nc3ccccc3-5)CCCC2)cc1 | 10 to 1000 nM | 20 to 1000 nM
O=C(O)/C=C/c1ccc(NC(=O)C2(NC(=O)c3ccc4c(C5CCCCC5)c5n(c4c3)CC(C(=O)N3CCN(c4ccncc4)CC3)Cc3ccccc3-5)CCCC2)cc1 (centres unmarked) | 10 to 1000 nM | 20 to 1000 nM
COC(=O)/C=C/c1ccc(NC(=O)C2(NC(=O)c3ccc4c(C5CCCCC5)c5n(c4c3)C[C@@H](O)[C@@H](O)c3ncccc3-5)CCCC2)cc1 | 10 to 1000 nM | 20 to 1000 nM
O=C(O)/C=C/c1ccc(NC(=O)C2(NC(=O)c3ccc4c(C5CCCCC5)c5n(c4c3)C[C@@H](O)[C@@H](O)c3ncccc3-5)CCCC2)cc1 | 10 to 1000 nM | 20 to 1000 nM
COC(=O)c1ccc2c(C3CCCCC3)c3n(c2c1)C[C@@H](O)[C@@H](O)c1ccccc1-3 | 1000 to 10000 nM | > 1000 nM
O=C(O)c1ccc2c(C3CCCCC3)c3n(c2c1)C[C@@H](O)[C@@H](O)c1ccccc1-3 | 1000 to 10000 nM | 20 to 1000 nM
CN(C(=O)c1ccc2c(C3CCCCC3)c3n(c2c1)CCCc1ccccc1-3)C1(C(=O)O)CCCC1 | > 10000 nM | 20 to 1000 nM
CN(C)S(=O)(=O)NC(=O)c1ccc2c(C3CCCCC3)c3n(c2c1)C[C@@H](O)[C@@H](O)c1ccccc1-3 | 10 to 1000 nM | > 1000 nM
COC(=O)/C=C/c1ccc(NC(=O)C2(NC(=O)c3ccc4c(C5CCCCC5)c5n(c4c3)C[C@@H](O)[C@@H](O)c3ccccc3-5)CCCC2)cc1 | < 100 nM | 20 to 1000 nM
O=C1Cc2ccccc2-c2c(C3CCCCC3)c3ccc(C(=O)O)cc3n2C1 | 1000 to 10000 nM | 20 to 1000 nM
O=C(O)/C=C/c1ccc(NC(=O)C2(NC(=O)c3ccc4c(C5CCCCC5)c5n(c4c3)C[C@@H](O)[C@@H](O)c3ccccc3-5)CCCC2)cc1 | 10 to 1000 nM | 20 to 1000 nM
COC(=O)c1ccc2c(C3CCCCC3)c3n(c2c1)CC(O)Cc1ccccc1-3 (centres unmarked) | 10 to 1000 nM | > 1000 nM
CN(C)S(=O)(=O)NC(=O)c1ccc2c(C3CCCCC3)c3n(c2c1)CC=Cc1ncccc1-3 | 1000 to 10000 nM | 20 to 1000 nM
CN(C)S(=O)(=O)NC(=O)c1ccc2c(C3CCCCC3)c3n(c2c1)C[C@@H](O)[C@@H](O)c1ncccc1-3 | > 10000 nM | 20 to 1000 nM
O=C(O)c1ccc2c(C3CCCCC3)c3n(c2c1)CC(O)Cc1ccccc1-3 (centres unmarked) | 1000 to 10000 nM | 20 to 1000 nM
COC(=O)/C=C/c1ccc(NC(=O)C2(NC(=O)c3ccc4c(C5CCCCC5)c5n(c4c3)CC(=O)Cc3ccccc3-5)CCCC2)cc1 | 10 to 1000 nM | > 1000 nM
COC(=O)c1ccc2c(C3CCCCC3)c3n(c2c1)C/C(=N/O)Cc1ccccc1-3 | 10 to 1000 nM | > 1000 nM
O=C(O)c1ccc2c(C3CCCCC3)c3n(c2c1)C/C(=N/O)Cc1ccccc1-3 | 1000 to 10000 nM | 20 to 1000 nM
Cn1cnc(S(=O)(=O)NC(=O)c2ccc3c(C4CCCCC4)c4n(c3c2)CC=Cc2ncccc2-4)c1 | > 10000 nM | 20 to 1000 nM
Cn1cnc(S(=O)(=O)NC(=O)c2ccc3c(C4CCCCC4)c4n(c3c2)C[C@@H](O)[C@@H](O)c2ncccc2-4)c1 | > 10000 nM | 20 to 1000 nM
CS(=O)(=O)NC(=O)c1ccc2c(C3CCCCC3)c3n(c2c1)CC=Cc1ncccc1-3 | > 10000 nM | 20 to 1000 nM
O=C(NS(=O)(=O)c1ccccc1)c1ccc2c(C3CCCCC3)c3n(c2c1)CC=Cc1ncccc1-3 | > 10000 nM | 20 to 1000 nM
O=C(NS(=O)(=O)Cc1ccccc1)c1ccc2c(C3CCCCC3)c3n(c2c1)CC=Cc1ncccc1-3 | 1000 to 10000 nM | 20 to 1000 nM
COC(=O)c1ccc2c(C3CCCCC3)c3n(c2c1)CC(CO)Cc1ccccc1-3 (centres unmarked) | 10 to 1000 nM | > 1000 nM
O=C(O)c1ccc2c(C3CCCCC3)c3n(c2c1)CC(CO)Cc1ccccc1-3 (centres unmarked) | 1000 to 10000 nM | 20 to 1000 nM
O=C(NS(=O)(=O)Cc1ccccc1)c1ccc2c(C3CCCCC3)c3n(c2c1)CCCc1ncccc1-3 | 1000 to 10000 nM | 20 to 1000 nM
O=C(NS(=O)(=O)c1ccccc1)c1ccc2c(C3CCCCC3)c3n(c2c1)C[C@@H](O)[C@@H](O)c1ncccc1-3 | 1000 to 10000 nM | 20 to 1000 nM
CN(C)S(=O)(=O)NC(=O)c1ccc2c(C3CCCCC3)c3n(c2c1)CC(O)Cc1ccccc1-3 (centres unmarked) | 10 to 1000 nM | 20 to 1000 nM

Structure (SMILES) | EC50 [1] | IC50 [2]
CS(=O)(=O)NC(=O)c1ccc2c(C3CCCCC3)c3n(c2c1)CCCc1ncccc1-3 | 1000 to 10000 nM | 20 to 1000 nM
NC(=O)c1ccc2c(C3CCCCC3)c3n(c2c1)CCCc1ncccc1-3 | 1000 to 10000 nM | 20 to 1000 nM
O=C(NS(=O)(=O)C1CC1)c1ccc2c(C3CCCCC3)c3n(c2c1)CC=Cc1ncccc1-3 | 1000 to 10000 nM | 20 to 1000 nM
CN(C)S(=O)(=O)NC(=O)c1ccc2c(C3CCCCC3)c3n(c2c1)CC(C(=O)N1CCN(c2ccncc2)CC1)=Cc1ccccc1-3 | 10 to 1000 nM | 20 to 1000 nM
COC(=O)c1ccc2c(C3CCCCC3)c3n(c2c1)CC(C#N)=Cc1ccccc1-3 | 1000 to 10000 nM | > 1000 nM
COC(=O)c1ccc2c(C3CCCCC3)c3n(c2c1)C=C(C#N)Cc1ccccc1-3 | 10 to 1000 nM | > 1000 nM
N#CC1=Cn2c(c(C3CCCCC3)c3ccc(C(=O)O)cc32)-c2ccccc2C1 | 1000 to 10000 nM | 20 to 1000 nM
COC(=O)c1ccc2c(C3CCCCC3)c3n(c2c1)CC(C(=O)O)=Cc1ccccc1-3 | 10 to 1000 nM | 20 to 1000 nM
CN(C)C(=O)c1ccc2c(C3CCCCC3)c3n(c2c1)CC(C(=O)N1CCOCC1)=Cc1ccccc1-3 | 1000 to 10000 nM | 20 to 1000 nM
COC(=O)c1ccc2c(C3CCCCC3)c3n(c2c1)CCCc1cc(OCc2cc([N+](=O)[O-])ccc2F)ccc1-3 | 1000 to 10000 nM | > 1000 nM
COC(=O)/C=C/c1ccc(NC(=O)C2(NC(=O)c3ccc4c(C5CCCCC5)c5n(c4c3)CCCc3ncccc3-5)CCCC2)cc1 | 10 to 1000 nM | 20 to 1000 nM
CN(C)S(=O)(=O)NC(=O)c1ccc2c(C3CCCCC3)c3n(c2c1)C[C@@H](C(=O)N1CCC(N2CCCC2)CC1)Cc1ccccc1-3 | 10 to 1000 nM | 20 to 1000 nM
CN(C)S(=O)(=O)NC(=O)c1ccc2c(C3CCCCC3)c3n(c2c1)C[C@H](C(=O)N1CCC(N2CCCC2)CC1)Cc1ccccc1-3 | 10 to 1000 nM | 20 to 1000 nM
O=C(C1=Cc2ccccc2-c2c(C3CCCCC3)c3ccc(C(=O)N4CCOCC4)cc3n2C1)N1CCOCC1 | 1000 to 10000 nM | > 1000 nM
N#Cc1ccc2c(C3CCCCC3)c3n(c2c1)CCCc1ncccc1-3 | 10 to 1000 nM | > 1000 nM
c1cnc2c(c1)-c1c(C3CCCCC3)c3ccc(-c4nnn[nH]4)cc3n1CCC2 | 1000 to 10000 nM | 20 to 1000 nM
O=C(NS(=O)(=O)C1CC1)c1ccc2c(C3CCCCC3)c3n(c2c1)CCCc1ncccc1-3 | 10 to 1000 nM | 20 to 1000 nM
O=C(NS(=O)(=O)c1ccccc1)c1ccc2c(C3CCCCC3)c3n(c2c1)CCCc1ncccc1-3 | 1000 to 10000 nM | 20 to 1000 nM
CN(C)S(=O)(=O)NC(=O)c1ccc2c(C3CCCCC3)c3n(c2c1)CCCc1ncccc1-3 | 10 to 1000 nM | 20 to 1000 nM
Cn1cnc(S(=O)(=O)NC(=O)c2ccc3c(C4CCCCC4)c4n(c3c2)CCCc2ncccc2-4)c1 | 1000 to 10000 nM | 20 to 1000 nM
O=C(c1ccc2c(C3CCCCC3)c3n(c2c1)CC(C(=O)N1CCOCC1)Cc1ccccc1-3)N1CCOCC1 (centres unmarked) | 10 to 1000 nM | > 1000 nM
O=C(O)c1ccc2c(C3CCCCC3)c3c4ccccc4[nH]c(=O)n3c2c1 | 10 to 1000 nM | > 1000 nM
CN(C)S(=O)(=O)NC(=O)c1ccc2c(C3CCCCC3)c3n(c2c1)C[C@H](C(=O)N1CCOCC1)Cc1ccccc1-3 | 10 to 1000 nM | 20 to 1000 nM
COC(=O)c1ccc2c(C3CCCCC3)c3n(c2c1)CC(C(=O)N(C)C)=Cc1ccccc1-3 | 1000 to 10000 nM | > 1000 nM
CN(C)C(=O)C1=Cc2ccccc2-c2c(C3CCCCC3)c3ccc(C(=O)O)cc3n2C1 | 10 to 1000 nM | 20 to 1000 nM
CN(C)C(=O)C1=Cc2ccccc2-c2c(C3CCCCC3)c3ccc(C(=O)NS(=O)(=O)N(C)C)cc3n2C1 | 10 to 1000 nM | 20 to 1000 nM
COC(=O)c1ccc2c(C3CCCCC3)c3n(c2c1)CC(C(=O)O)=Cc1cc(OCc2ccccc2)ccc1-3 | 1000 to 10000 nM | > 1000 nM
